Assay results reported in PubChem BioAssay AID256 (DTP/NCI, 2004).
Where “and” joins values, the source holds several entries; their conditions need not be identical. Identical values can stand only once. Toxic doses and inconclusive results are not listed. Rule for the calls: active = survival T/C of 150% or more; inactive = T/C below 125% in these data.

System: CD2F1 mice, L1210 leukemia ip, survival T/C
Assay: NCI In Vivo Anticancer Drug Screen. Data for tumor model L1210 Leukemia (intraperitoneal) in CD2F1 (CDF1) mice
Conditions: higher = longer survival
Summary of the method: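 In this screen, transplantable tumors were grown in mice given either the compound or its vehicle. Results were expressed as the treated measurement relative to the control measurement.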

[1] = endpoint: mean survival time, dose: 100.0 mg/kg/injection, schedule: Q01DX001 (ip), vehicle: saline with Tween-80
[2] = endpoint: mean survival time, dose: 100.0 mg/kg/injection, schedule: Q01DX009 (ip), vehicle: saline with Tween-80
[3] = endpoint: mean survival time, dose: 200.0 mg/kg/injection, schedule: Q01DX001 (ip), vehicle: saline with Tween-80
[4] = endpoint: mean survival time, dose: 200.0 mg/kg/injection, schedule: Q01DX009 (ip), vehicle: saline with Tween-80
[5] = endpoint: mean survival time, dose: 400.0 mg/kg/injection, schedule: Q01DX001 (ip), vehicle: saline with Tween-80
[6] = endpoint: mean survival time, dose: 400.0 mg/kg/injection, schedule: Q01DX009 (ip), vehicle: saline with Tween-80
[7] = endpoint: mean survival time, dose: 25.0 mg/kg/injection, schedule: Q01DX009 (ip), vehicle: other
[8] = endpoint: mean survival time, dose: 50.0 mg/kg/injection, schedule: Q01DX009 (ip), vehicle: other
[9] = endpoint: mean survival time, dose: 100.0 mg/kg/injection, schedule: Q01DX009 (ip), vehicle: other
[10] = endpoint: mean survival time, dose: 200.0 mg/kg/injection, schedule: Q01DX009 (ip), vehicle: other
[11] = endpoint: mean survival time, dose: 100.0 mg/kg/injection, schedule: Q04DX003 (ip), vehicle: saline with Tween-80
[12] = endpoint: mean survival time, dose: 200.0 mg/kg/injection, schedule: Q04DX003 (ip), vehicle: saline with Tween-80
[13] = endpoint: mean survival time, dose: 400.0 mg/kg/injection, schedule: Q04DX003 (ip), vehicle: saline with Tween-80
[14] = endpoint: mean survival time, dose: 75.0 mg/kg/injection, schedule: Q01DX001 (ip), vehicle: saline
[15] = endpoint: mean survival time, dose: 150.0 mg/kg/injection, schedule: Q01DX001 (ip), vehicle: saline
[16] = endpoint: mean survival time, dose: 100.0 mg/kg/injection, schedule: Q01DX009 (ip), vehicle: saline
[17] = endpoint: mean survival time, dose: 200.0 mg/kg/injection, schedule: Q01DX009 (ip), vehicle: saline
[18] = endpoint: mean survival time, dose: 400.0 mg/kg/injection, schedule: Q01DX009 (ip), vehicle: saline

Measured: T/C

Cc1ccc(S(=O)(=O)OC(c2ccc(Cl)cc2)C(F)(F)F)cc1 (stereo not given)
inactive: [1] 101 % of control | [2] 93 % of control | [3] 95 % of control | [4] 86 % of control | [5] 101 % of control | [6] 87 % of control

Nc1nc2c(c(=O)[nH]1)N(Cc1c[nH]c(=O)[nH]c1=O)C(CNc1ccc(C(=O)NC(CCC(=O)O)C(=O)O)cc1)CN2 (stereo not given)
inactive: [1] 101 % of control | [3] 92 % of control | [5] 101 % of control

O=c1cc(O)cn[nH]1
inactive: [7] 97 % of control | [8] 97 % of control | [9] 104 % of control | [10] 102 % of control | endpoint: mean survival time, dose: 400.0 mg/kg/injection, schedule: Q01DX009 (ip), vehicle: other 102 % of control

COC(=O)c1ncn(C2OC(CO)C(O)C2O)n1 (stereo not given)
inactive: endpoint: median survival time, dose: 8.75 mg/kg/injection, schedule: Q01DX005 (ip), vehicle: water 100 % of control | endpoint: median survival time, dose: 17.5 mg/kg/injection, schedule: Q01DX005 (ip), vehicle: water 96 % of control | endpoint: median survival time, dose: 35.0 mg/kg/injection, schedule: Q01DX005 (ip), vehicle: water 97 % of control | endpoint: median survival time, dose: 70.0 mg/kg/injection, schedule: Q01DX005 (ip), vehicle: water 97 % of control | endpoint: median survival time, dose: 140.0 mg/kg/injection, schedule: Q01DX005 (ip), vehicle: water 100 % of control

O=C(Nc1ccc2c3c(cccc13)CC2)c1ccccc1
inactive: [11] 95 % of control | [12] 97 % of control | [13] 92 % of control

CCCCCCCCCCCCCCCCOc1ccc(OCCCCCCCCCCCCCCC)cc1
inactive: [1] 88 % of control | [3] 89 % of control | [5] 88 % of control

O=C(O)C/C=C/Br
inactive: [14] 100 % of control | [15] 100 % of control

CC1(C)OC(=O)N(CO)C1=O
inactive: endpoint: mean survival time, dose: 12.5 mg/kg/injection, schedule: Q01DX009 (ip), vehicle: saline 100 % of control and 103 % of control | endpoint: mean survival time, dose: 25.0 mg/kg/injection, schedule: Q01DX009 (ip), vehicle: saline 97 % of control and 102 % of control | endpoint: mean survival time, dose: 50.0 mg/kg/injection, schedule: Q01DX009 (ip), vehicle: saline 100 % of control and 102 % of control | [16] 114 % of control and 111 % of control | [17] 120 % of control and 111 % of control | [18] 91 % of control and 97 % of control

CCOC(=O)C(=CN1CCCCCC1)C(=O)OCC
inactive: [2] 94 % of control | [4] 89 % of control | [6] 94 % of control

Nc1cn2ncnc2c(=O)[nH]1
inactive: endpoint: median survival time, dose: 50.0 mg/kg/injection, schedule: Q01DX005 (ip), vehicle: saline 106 % of control | endpoint: median survival time, dose: 100.0 mg/kg/injection, schedule: Q01DX005 (ip), vehicle: saline 106 % of control | endpoint: median survival time, dose: 200.0 mg/kg/injection, schedule: Q01DX005 (ip), vehicle: saline 113 % of control

CN(C)Cc1ccc(C(C)(C)C)cc1Br
inactive: endpoint: mean survival time, dose: 12.5 mg/kg/injection, schedule: Q01DX009 (ip), vehicle: water 98 % of control | endpoint: mean survival time, dose: 25.0 mg/kg/injection, schedule: Q01DX009 (ip), vehicle: water 95 % of control | endpoint: mean survival time, dose: 50.0 mg/kg/injection, schedule: Q01DX009 (ip), vehicle: water 98 % of control | endpoint: mean survival time, dose: 100.0 mg/kg/injection, schedule: Q01DX009 (ip), vehicle: water 98 % of control | endpoint: mean survival time, dose: 200.0 mg/kg/injection, schedule: Q01DX009 (ip), vehicle: water 104 % of control

O=C1C(C(O)c2ccccc2)CCCC1C(O)c1ccccc1 (stereo not given)
inactive: [11] 89 % of control | [12] 89 % of control | [13] 92 % of control

COc1ccc(CNCCO)cc1OC
inactive: endpoint: median survival time, dose: 25.0 mg/kg/injection, schedule: Q04DX003 (ip), vehicle: saline 90 % of control | endpoint: median survival time, dose: 50.0 mg/kg/injection, schedule: Q04DX003 (ip), vehicle: saline 90 % of control | endpoint: median survival time, dose: 100.0 mg/kg/injection, schedule: Q04DX003 (ip), vehicle: saline 90 % of control | endpoint: median survival time, dose: 200.0 mg/kg/injection, schedule: Q04DX003 (ip), vehicle: saline 100 % of control

CC(=O)c1cc(Br)cc(Br)c1O
inactive: endpoint: mean survival time, dose: 100.0 mg/kg/injection, schedule: Q01DX001 (ip), vehicle: saline 96 % of control | endpoint: mean survival time, dose: 200.0 mg/kg/injection, schedule: Q01DX001 (ip), vehicle: saline 100 % of control | endpoint: mean survival time, dose: 400.0 mg/kg/injection, schedule: Q01DX001 (ip), vehicle: saline 96 % of control

O=C(C1CCCCC1)C1CCC2(CCCCC2)CC1
inactive: endpoint: mean survival time, dose: 12.5 mg/kg/injection, schedule: Q01DX009 (ip), vehicle: other 92 % of control | [7] 87 % of control | [8] 93 % of control | [9] 92 % of control | [10] 95 % of control

COCCNC(=O)Nc1cccc2c1CCCC2
inactive: [11] 106 % of control | [12] 97 % of control | [13] 91 % of control

C=CCOc1cc2c(cc1C(C)c1ccc(OC)cc1)OCO2 (stereo not given)
inactive: endpoint: median survival time, dose: 25.0 mg/kg/injection, schedule: Q01DX009 (ip), vehicle: Klucel (hydroxypropylcellulose) (HPC) 100 % of control and 103 % of control | endpoint: median survival time, dose: 50.0 mg/kg/injection, schedule: Q01DX005 (ip), vehicle: Klucel (hydroxypropylcellulose) (HPC) 94 % of control | endpoint: median survival time, dose: 50.0 mg/kg/injection, schedule: Q01DX009 (ip), vehicle: Klucel (hydroxypropylcellulose) (HPC) 120 % of control and 101 % of control and 104 % of control | endpoint: median survival time, dose: 50.0 mg/kg/injection, schedule: Q01DX009 (ip), vehicle: saline with Tween-80 105 % of control | endpoint: median survival time, dose: 100.0 mg/kg/injection, schedule: Q01DX005 (ip), vehicle: Klucel (hydroxypropylcellulose) (HPC) 103 % of control | endpoint: median survival time, dose: 100.0 mg/kg/injection, schedule: Q01DX009 (ip), vehicle: Klucel (hydroxypropylcellulose) (HPC) 105 % of control and 110 % of control | endpoint: median survival time, dose: 100.0 mg/kg/injection, schedule: Q01DX009 (ip), vehicle: saline with Tween-80 107 % of control | endpoint: median survival time, dose: 200.0 mg/kg/injection, schedule: Q01DX005 (ip), vehicle: Klucel (hydroxypropylcellulose) (HPC) 108 % of control | endpoint: median survival time, dose: 400.0 mg/kg/injection, schedule: Q01DX005 (ip), vehicle: Klucel (hydroxypropylcellulose) (HPC) 118 % of control | endpoint: median survival time, dose: 400.0 mg/kg/injection, schedule: Q01DX009 (ip), vehicle: saline with Tween-80 124 % of control | endpoint: median survival time, dose: 800.0 mg/kg/injection, schedule: Q01DX005 (ip), vehicle: Klucel (hydroxypropylcellulose) (HPC) 95 % of control | endpoint: median survival time, dose: 800.0 mg/kg/injection, schedule: Q01DX009 (ip), vehicle: saline with Tween-80 98 % of control

C[n+]1ccc(/C=C\Nc2ccccn2)cc1
inactive: [14] 103 % of control | [15] 108 % of control

CC(CCCOS(C)(=O)=O)OS(C)(=O)=O (stereo not given)
inactive: endpoint: mean survival time, dose: 25.0 mg/kg/injection, schedule: Q04DX002 (ip), vehicle: Klucel (hydroxypropylcellulose) (HPC) 105 % of control | endpoint: mean survival time, dose: 50.0 mg/kg/injection, schedule: Q04DX002 (ip), vehicle: Klucel (hydroxypropylcellulose) (HPC) 108 % of control | endpoint: mean survival time, dose: 100.0 mg/kg/injection, schedule: Q04DX002 (ip), vehicle: Klucel (hydroxypropylcellulose) (HPC) 94 % of control

CCOc1ccc(OCC)c(NC(=O)Nc2ccc(OC)cc2)c1
inactive: endpoint: mean survival time, dose: 100.0 mg/kg/injection, schedule: Q04DX002 (ip), vehicle: saline with Tween-80 89 % of control | endpoint: mean survival time, dose: 200.0 mg/kg/injection, schedule: Q04DX002 (ip), vehicle: saline with Tween-80 93 % of control | endpoint: mean survival time, dose: 400.0 mg/kg/injection, schedule: Q04DX002 (ip), vehicle: saline with Tween-80 86 % of control

COc1ccc(N)cc1OC
inactive: [16] 96 % of control | [17] 102 % of control | [18] 98 % of control

O=C(O)CCCCCCCCC(=O)c1ccccc1
inactive: [11] 97 % of control | [12] 95 % of control | [13] 88 % of control

COc1ccc(C(C)=O)cc1C=O
inactive: [2] 87 % of control | [11] 97 % of control | [4] 92 % of control | [12] 104 % of control | [6] 90 % of control | [13] 102 % of control

C[Si](O)(O)CCCCNC(=O)/C=C\C(=O)O
inactive: endpoint: mean survival time, dose: 100.0 mg/kg/injection, schedule: Q04DX003 (ip), vehicle: other 89 % of control | endpoint: mean survival time, dose: 200.0 mg/kg/injection, schedule: Q04DX003 (ip), vehicle: other 93 % of control | endpoint: mean survival time, dose: 400.0 mg/kg/injection, schedule: Q04DX003 (ip), vehicle: other 89 % of control

ClC1=C(Cl)C2(Cl)C=CC1(Cl)C2(Cl)Cl
inactive: endpoint: mean survival time, dose: 25.0 mg/kg/injection, schedule: Q01DX009 (ip), vehicle: saline with Tween-80 97 % of control | endpoint: mean survival time, dose: 50.0 mg/kg/injection, schedule: Q01DX009 (ip), vehicle: saline with Tween-80 90 % of control | [11] 105 % of control
